Results: patent publication US6713475B2, “Tricyclic benzodiazepines as vasopressin receptor antagonists” (Ortho-McNeil Pharmaceutical, Inc., priority 1999, dated 2004)
Values joined by “and” are separate entries in the source; they are usually repeats but may differ in a detail not shown here. Identical values can stand only once.

Assays:
human V-1 receptor = molecular target: T1, human V-1 receptor (Homo sapiens, UniProt P37288); test: In vitro recombinant vasopressin receptor binding assay (V1 Bdg), displacement of 3H-arginine vasopressin; settings: for V1 Bdg % inh: 1 uM; for inhibition at 0.1 µM: read-out: V1 Bdg (% inh, 0.1 uM)
T1 construct: expressed in transfected cells; host or cells: HEK-293
Procedure: (§1) In vitro Recombinant Vasopressin Receptor Binding Assay
(§2) Compounds were assessed for their ability to displace ^3H-arginine vasopressin from the human V-1 or V-2 receptor in HEK-293 cells. Assay buffer is 50 mM Tris-Cl, 5 mM MgCl2, 0.1% BSA (pH 7.5) containing 5 ug/ml of aprotinin, leupeptin, pepstatin, 50 ug/ml bacitracin, and 1 mM Pefabloc. ^3H-vasopressin is ^3H-arginine-8-vasopressin (68.5 Ci/mmol, final concentration in assay is 0.65-0.75 nM). Into wells of 96-well round bottom polypropylene plates were added buffer, test compound, membrane (containing cloned human V-1 or V-2 receptor), and ^3H-vasopressin. The reaction plates were allowed to sit at room temperature for one hour. The samples were filtered through Unifilter GF/C plates (presoaked in 0.3 polyethyleneimine). The plates were washed 5 times with cold physiological saline containing 0.05% Tween 20. After drying, the bottom of the filter plates were sealed and 0.025 ml of Microscint-20 was added to each filter. The top of the plate was sealed, and the plate was counted. Non-specific binding was determined by the addition of 1.25 uM arginine-8-vasopressin in those wells.

V2 = V2 (Homo sapiens, UniProt P30518); test: In vitro recombinant vasopressin receptor binding assay (V2 Bdg), displacement of 3H-arginine vasopressin; design: expressed in transfected cells; host or cells: HEK-293; settings: for V2 Bdg % inh: 0.1 uM, printed in parentheses in place of IC50; for IC50: membrane with cloned human V-2 receptor (HEK-293); for inhibition at 0.1 µM: read-out: V2 Bdg % inh
Procedure: as §1
as §2, with “Assay buffer is 50 mM Tris-Cl, 5 mM MgCl2, 0.1% BSA (pH 7.5) containing 5 ug/ml of aprotinin, leupeptin, pepstatin, 50 ug/ml bacitracin, and 1 mM Pefabloc. ^3H-vasopressin is ^3H-arginine-8-vasopressin (68.5 Ci/mmol, final concentration in assay is 0.65-0.75 nM).” left out, “counted.” for “counted. Non-specific binding was determined by the addition of 1.25 uM arginine-8-vasopressin in those wells.”

T1 sequence (P37288 whole entry): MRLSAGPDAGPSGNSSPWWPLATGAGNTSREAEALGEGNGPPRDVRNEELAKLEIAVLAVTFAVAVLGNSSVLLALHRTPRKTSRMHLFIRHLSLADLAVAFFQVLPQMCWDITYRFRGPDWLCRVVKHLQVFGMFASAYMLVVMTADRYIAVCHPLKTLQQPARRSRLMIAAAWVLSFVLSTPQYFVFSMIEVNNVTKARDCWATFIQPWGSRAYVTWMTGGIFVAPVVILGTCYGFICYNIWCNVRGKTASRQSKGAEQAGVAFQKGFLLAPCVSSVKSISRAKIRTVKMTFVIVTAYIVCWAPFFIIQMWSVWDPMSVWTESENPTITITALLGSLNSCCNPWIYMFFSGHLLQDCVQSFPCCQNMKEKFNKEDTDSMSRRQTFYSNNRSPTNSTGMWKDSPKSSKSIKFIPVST

Row | IC50 (V2) [nM] | Molecule | V2 Bdg % inh (V2) | also measured
1 |  | (RS)-2,3-Difluoro-N-[3-chloro-4-(1,3,4,12a-tetrahydro-2-methyl-6H-[1,4]pyrazino[4,3-a][1,4]-benzodiazepin-11(12H)-yl-carbonyl)phenyl]benzamide [Compound 101] |  | V1 Bdg % inh (human V-1 receptor): (6%/1 uM)
2 |  | Cc1ccc(-c2ccccc2C(=O)Nc2ccc(C(=O)N3CC4CN(C)CCN4Cc4ccccc43)c(C(F)(F)F)c2)cc1 (racemic) [Compound 76, (RS)-2-(4-Methyl-phenyl)-N-[3-trifluoromethyl-4-(1,3,4,12a-tetrahydro-2-methyl-6H-[1,4]pyrazino[4,3-a][1,4]-benzodiazepin-11(12H)-yl-carbonyl)phenyl]benzamide] | (50%/0.1 uM) | V1 Bdg % inh (human V-1 receptor): (18%/1 uM)
3 | 27 | O=C(Nc1ccc(C(=O)N2C[C@H]3COCCN3Cc3ccccc32)c(Cl)c1)c1cc(O)ccc1-c1ccccc1 [Compound 8, (S)-2-Phenyl-5-hydroxy-N-[3-chloro-4-(1,3,4,12a-tetrahydro-6H-[1,4]oxazino[4,3-a][1,4]-benzodiazepin-11(12H)-yl-carbonyl)phenyl]benzamide] |  | inhibition at 0.1 µM (human V-1 receptor): 32%
4 |  | Cc1ccccc1C(=O)Nc1ccc(C(=O)N2CC3COCCN3Cc3ccccc32)cc1 (racemic) [Compound 26, (RS)-2-Methyl-N-[4-(1,3,4,12a-tetrahydro-6H-[1,4]oxazino[4,3-a][1,4]-benzodiazepin-11(12H)-yl-carbonyl)phenyl]benzamide] | (65%/0.1 uM) | V1 Bdg (% inh, 0.1 uM) (human V-1 receptor): 58%
5 |  | (RS)-2-Chloro-5-trifluoromethyl-N-[3-chloro-4-(1,3,4,12a-tetrahydro-6H-[1,4]oxazino[4,3-a][1,4]-benzodiazepin-11(12H)-yl-carbonyl)phenyl]benzamide [Compound 17] | (63%/0.1 uM) | V1 Bdg (% inh, 0.1 uM) (human V-1 receptor): 13%
6 |  | O=C(Nc1ccc(C(=O)N2CC3CN(CC(F)(F)F)CCN3Cc3ccccc32)c(Cl)c1)c1ccccc1-c1ccccc1 (racemic) [Compound 91, (RS)-2-Phenyl-N-[3-chloro-4-(1,3,4,12a-tetrahydro-2-(2,2,2-trifluoroethyl)-6H-[1,4]pyrazino[4,3-a][1,4]-benzodiazepin-11(12H)-yl-carbonyl)phenyl]benzamide] | (31%/0.1 uM) | V1 Bdg % inh (human V-1 receptor): (2%/1 uM)
7 |  | CN1CCN2Cc3ccccc3N(C(=O)c3ccc(NC(=O)c4cccc(Cl)c4Cl)cc3Cl)CC2C1 (racemic) [Compound 97, (RS)-2,3-Dichloro-N-[3-chloro-4-(1,3,4,12a-tetrahydro-2-methyl-6H-[1,4]pyrazino[4,3-a][1,4]-benzodiazepin-11(12H)-yl-carbonyl)phenyl]benzamide] | (9%/0.1 uM) | V1 Bdg % inh (human V-1 receptor): (21%/1 uM)
8 | 14 | Cc1ccc(-c2ccccc2C(=O)Nc2ccc(C(=O)N3CC4COCCN4Cc4ccccc43)c(F)c2)cc1 (racemic) [Compound 30, (RS)-2-(4-Methyl-phenyl)-N-[3-fluoro-4-(1,3,4,12a-tetrahydro-6H-[1,4]oxazino[4,3-a][1,4]-benzodiazepin-11(12H)-yl-carbonyl)phenyl]benzamide] |  | inhibition at 0.1 µM (human V-1 receptor): 74%
9 |  | Cc1ccc(-c2ccccc2C(=O)Nc2ccc(C(=O)N3CC4CN(C)CCN4Cc4ccccc43)c(Cl)c2)cc1 (racemic) [Compound 66, (RS)-2-(4-Methyl-phenyl)-N-[3-chloro-4-(1,3,4,12a-tetrahydro-2-methyl-6H-[1,4]pyrazino[4,3-a][1,4]-benzodiazepin-11(12H)-yl-carbonyl)phenyl]benzamide] | (82%/0.1 uM) | 
10 |  | Cc1cccc(C(=O)Nc2ccc(C(=O)N3CC4CN(C)CCN4Cc4ccccc43)c(Cl)c2)c1C (racemic) [Compound 62, (RS)-2,3-Dimethyl-N-[3-chloro-4-(1,3,4,12a-tetrahydro-2-methyl-6H-[1,4]pyrazino[4,3-a][1,4]-benzodiazepin-11(12H)-yl-carbonyl)phenyl]benzamide] | 28% and 48% | 
11 |  | COc1cc(C(=O)N2CC3CN(C)CCN3Cc3ccccc32)ccc1NC(=O)c1ccccc1C (racemic) [Compound 71, (RS)-2-Methyl-N-[2-methoxy-4-(1,3,4,12a-tetrahydro-2-methyl-6H-[1,4]pyrazino[4,3-a][1,4]-benzodiazepin-11(12H)-yl-carbonyl)phenyl]benzamide] |  | V1 Bdg % inh (human V-1 receptor): (12%/1 uM)
12 | 40 | O=C(Nc1ccc(C(=O)N2CC3CSCCN3Cc3ccccc32)c(Cl)c1)c1ccccc1-c1ccsc1 (racemic) [Compound 50, (RS)-2-(3-Thienyl)-N-[3-chloro-4-(1,3,4,12a-tetrahydro-6H-[1,4]thiazino[4,3-a][1,4]-benzodiazepin-11(12H)-yl-carbonyl)phenyl]benzamide] |  | 
13 |  | O=C(Nc1ccc(C(=O)N2CC3CN(Cc4ccccc4)CCN3Cc3ccccc32)cc1)c1ccccc1-c1ccccc1 (racemic) [Compound 57, (RS)-2-Phenyl-N-[4-(1,3,4,12a-tetrahydro-2-benzyl-6H-[1,4]pyrazino[4,3-a][1,4]-benzodiazepin-11(12H)-yl-carbonyl)phenyl]benzamide] | (25%/0.1 uM) | 
14 | 32 | COc1cc(NC(=O)c2ccccc2-c2ccccc2)ccc1C(=O)N1CC2CSCCN2Cc2ccccc21 (racemic) [Compound 108, (RS)-2-Phenyl-N-[3-methoxy-4-(1,3,4,12a-tetrahydro-6H-[1,4]thiazino[4,3-a][1,4]-benzodiazepin-11(12H)-yl-carbonyl)phenyl)benzamide] |  | 
15 | 11 | O=C(Nc1ccc(C(=O)N2C[C@H]3CSCCN3Cc3ccccc32)c(Cl)c1)c1ccccc1-c1ccccc1 [Compound 47, (S)-2-Phenyl-N-[3-chloro-4-(1,3,4,12a-tetrahydro-6H-[1,4]thiazino[4,3-a][1,4]-benzodiazepin-11(12H)-yl-carbonyl)phenyl]benzamide] |  | 
16 |  | Cc1cccc2c1N(C(=O)c1ccc(NC(=O)c3ccccc3-c3ccccc3)cc1)CC1CSCCN1C2 (racemic) [Compound 39, (RS)-2-Phenyl-N-[4-(10-methyl-1,3,4,12a-tetrahydro-6H-[1,4]thiazino[4,3-a][1,4]-benzodiazepin-11(12H)-yl-carbonyl)phenyl]benzamide] |  | inhibition at 0.1 µM (V2): 37%
17 | 32 | O=C(Nc1ccc(C(=O)N2C[C@@H]3COCCN3Cc3ccccc32)c(Cl)c1)c1ccccc1-c1ccccc1 [Compound 13, (R)-2-Phenyl-N-[3-chloro-4-(1,3,4,12a-tetrahydro-6H-[1,4]oxazino[4,3-a][1,4]-benzodiazepin-11(12H)-yl-carbonyl)phenyl]benzamide] |  | 
18 | 37 | COc1ccc(-c2ccccc2)c(C(=O)Nc2ccc(C(=O)N3CC4COCCN4Cc4ccccc43)c(Cl)c2)c1 (racemic) [Compound 116, (RS)-2-Phenyl-5-methoxy-N-[3-chloro-4-(1,3,4,12a-tetrahydro-6H-[1,4]oxazino[4,3-a][1,4]-benzodiazepin-11(12H)-yl-carbonyl)phenyl]benzamide] |  | 
19 | 8 | O=C(Nc1ccc(C(=O)N2CC3CSCCN3Cc3ccccc32)c(Cl)c1)c1ccc(F)cc1-c1ccccc1 (racemic) [Compound 105, (RS)-2-Phenyl-4-fluoro-N-[3-chloro-4-(1,3,4,12a-tetrahydro-6H-[1,4]thiazino[4,3-a][1,4]-benzodiazepin-11(12H)-yl-carbonyl)phenyl]benzamide] |  | 
20 |  | O=C(Nc1ccc(C(=O)N2CC3CNCCN3Cc3ccccc32)cc1)c1ccccc1-c1ccccc1 (racemic) [Compound 58, (RS)-2-Phenyl-N-[4-(1,3,4,12a-tetrahydro-6H-[1,4]pyrazino[4,3-a][1,4]-benzodiazepin-11(12H)-yl-carbonyl)phenyl]benzamide] | (33%/0.1 uM) | 
21 |  | Cc1ccccc1C(=O)Nc1ccc(C(=O)N2CC3CN(C)CCN3Cc3ccccc32)c(C(F)(F)F)c1 (racemic) [Compound 74, (RS)-2-M ethyl-N-[3-trifluoromethyl-4-(1,3,4,12a-tetrahydro-2-methyl-6H-[1,4]pyrazino[4,3-a][1,4]-benzodiazepin-11(12H)-yl-carbonyl)phenyl]benzamide] | (4%/0.1 uM) | 
22 | 43 | COc1cc(C(=O)N2CC3CN(C)CCN3Cc3ccccc32)ccc1NC(=O)c1ccccc1-c1ccc(C)cc1 (racemic) [Compound 73, (RS)-2-(4-Methyl-phenyl)-N-[2-methoxy-4-(1,3,4,12a-tetrahydro-2-methyl-6H-[1,4]pyrazino[4,3-a][1,4]-benzodiazepin-11(12H)-yl-carbonyl)phenyl]benzamide] |  | inhibition at 0.1 µM (V2): 73%
23 |  | O=C(Nc1ccc(C(=O)N2C[C@H]3COCCN3Cc3ccccc32)c(Cl)c1)c1ccc(O)cc1-c1ccccc1 [Compound 6, (S)-2-Phenyl-4-hydroxy-N-[3-chloro-4-(1,3,4,12a-tetrahydro-6H-[1,4]oxazino[4,3-a][1,4]-benzodiazepin-11(12H)-yl-carbonyl)phenyl]benzamide] |  | inhibition at 0.1 µM (human V-1 receptor): 49%
